Assay results taken from publication PMC10892120, “Design, Synthesis and Biological Assessment of N′-(2-Oxoindolin-3-ylidene)-6-methylimidazo[2,1-b]thiazole-5-carbohydrazides as Potential Anti-Proliferative Agents toward MCF-7 Breast Cancer” (Pharmaceuticals, 2024).

Experiments:
MCF-7 = assay: Cell cycle analysis (propidium iodide flow cytometry) in MCF-7; type: cell-based; details: MCF-7 cell cycle distribution
Protocol: Compound 6i arrested cells in the G2/M phase with %G2/M = 27.07, compared with %G2/M = 11.31 for the control MCF-7 (Table 5 and Figure 4).
These were performed using the approach described in the Supplementary Data, page 44 [46]. […]
thoroughly, and then centrifuge at 4°C to collect contents to the bottom of the tube. Chill on ice before using. Centrifuge again briefly at 4°C if needed. Preparation of a reaction cocktail is crucial in quantitative PCR applications to reduce pipetting errors and maximize assay precision and accuracy. Assemble the reaction cocktail with all required components except sample template (total RNA) and dispense equal aliquots into each reaction tube. Add target sample to each reaction as the final step. Addition of sample as 5–10 μl volumes will improve assay precision. Replicate samples should be assembled as a master mix with a single addition of sample template.
Cell cycle analysis and apoptosis
Transfer the previously prepared cells from 4 °C to the bench-top and equilibrate to room temperature. Gently re-suspend cells by inverting the tube or by gentleup and down pipetting.
There may be visible thin salt crystals in the tube but this will not affect the sedimentation of the cells in the next step. Pellet the cells at 500 x g for 5 minutes. Carefully aspirate the supernatant without disrupting the pellet. It is better to incompletely remove the supernatant than to accidently aspirate part of the pellet and lose cells. Wash the cells by gently resuspending in 1 mL 1X PBS.
Again, pellet the cells at 500 x g for 5 minutes and carefully remove the supernatant. Gently resuspend the cell pellet in 200 μL 1X Propidium Iodide + RNase Staining Solution. Then ensure that the cells are fully resuspended. Incubate at 37 °C in the dark for 20 – 30 minutes. Place tubes on ice (still in the dark) and prepare for flow cytometry analysis. Gently resuspend cells that settled during the incubation by pipetting up and down. If desired, pass cells through an appropriate filter (not provided) to remove cell aggregates. […] Collect Propidium iodide fluorescence in FL2. […]

VEGFR-2 = VEGFR-2 (Homo sapiens, UniProt P35968); assay: In vitro VEGFR-2 kinase inhibition assay; type: biochemical; details: mean ± SD of three experiments
Chain of VEGFR-2 (P35968 20-1356): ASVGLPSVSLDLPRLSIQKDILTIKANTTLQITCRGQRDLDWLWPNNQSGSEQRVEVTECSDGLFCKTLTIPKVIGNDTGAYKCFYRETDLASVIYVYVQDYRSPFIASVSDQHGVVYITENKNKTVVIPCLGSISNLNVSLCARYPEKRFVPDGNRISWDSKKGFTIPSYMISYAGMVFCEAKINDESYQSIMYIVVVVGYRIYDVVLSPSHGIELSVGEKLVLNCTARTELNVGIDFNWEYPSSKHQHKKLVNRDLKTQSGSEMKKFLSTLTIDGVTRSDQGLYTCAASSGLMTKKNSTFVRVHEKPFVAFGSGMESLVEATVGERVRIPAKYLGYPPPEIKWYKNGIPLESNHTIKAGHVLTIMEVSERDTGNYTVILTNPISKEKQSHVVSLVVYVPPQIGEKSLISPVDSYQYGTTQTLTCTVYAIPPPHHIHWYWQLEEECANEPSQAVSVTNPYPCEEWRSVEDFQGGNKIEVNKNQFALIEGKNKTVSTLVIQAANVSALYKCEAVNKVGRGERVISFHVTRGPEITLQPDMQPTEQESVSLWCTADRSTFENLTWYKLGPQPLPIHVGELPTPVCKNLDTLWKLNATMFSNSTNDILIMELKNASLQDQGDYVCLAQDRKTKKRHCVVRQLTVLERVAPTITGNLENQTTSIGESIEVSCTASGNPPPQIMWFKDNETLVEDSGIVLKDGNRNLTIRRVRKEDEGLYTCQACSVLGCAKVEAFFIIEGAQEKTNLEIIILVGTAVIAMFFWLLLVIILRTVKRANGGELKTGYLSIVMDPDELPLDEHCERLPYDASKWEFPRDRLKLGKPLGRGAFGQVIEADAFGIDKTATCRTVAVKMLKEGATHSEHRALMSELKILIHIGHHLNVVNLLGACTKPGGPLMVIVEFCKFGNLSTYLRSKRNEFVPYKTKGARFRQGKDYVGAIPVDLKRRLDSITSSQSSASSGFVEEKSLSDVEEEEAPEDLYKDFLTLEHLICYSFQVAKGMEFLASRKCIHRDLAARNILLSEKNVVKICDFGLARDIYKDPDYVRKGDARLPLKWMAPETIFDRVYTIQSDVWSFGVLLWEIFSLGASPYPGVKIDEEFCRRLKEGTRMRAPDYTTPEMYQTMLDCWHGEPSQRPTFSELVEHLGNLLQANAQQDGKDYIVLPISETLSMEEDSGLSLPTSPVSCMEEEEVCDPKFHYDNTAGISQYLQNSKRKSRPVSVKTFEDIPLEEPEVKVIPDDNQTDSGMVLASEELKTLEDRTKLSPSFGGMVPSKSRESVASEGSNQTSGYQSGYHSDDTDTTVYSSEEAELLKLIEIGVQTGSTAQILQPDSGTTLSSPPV

CCCCN1C(=O)C(=NNC(=O)c2c(C)nc3sccn23)c2ccccc21 [Compound 6i, N′-(1-Butyl-2-oxoindolin-3-ylidene)-6-methylimidazo[2,1-b]thiazole-5-carbohydrazide]
%G2/M (MCF-7; control 11.31): 27.07% | %S (MCF-7; control 23.96): 19.27% | %G0–G1 (MCF-7; control 64.73): 53.66% | IC50 (VEGFR-2): 330 ± 10 nM
